Literature values, collected in patent US20230000758A1, “METHOD FOR PREVENTING SKIN AGING COMPRISING KOREAN MINT EXTRACT” (COSMAX NBT, INC., priority 2021, published 2023).

System: catalase
Conditions: lipopolysaccharide-stimulated mouse lung tissues

COc1ccc(-c2cc(=O)c3c(O)cc(O[C@@H]4O[C@H](CO[C@@H]5O[C@@H](C)[C@H](O)[C@@H](O)[C@H]5O)[C@@H](O)[C@H](O)[C@H]4O)cc3o2)cc1 [linarin]
expression of the anti-oxidant enzyme catalase: markedly increased
